Test results: patent US20240209355A1, “NUCLEIC ACID BINDING PROTEIN FORMULATIONS AND USES THEREOF” (Spotlight Therapeutics, priority 2020, published 2024)
“And” between values parts separate entries of the source, which are not always exact repeats. Identical values can stand only once.

Assays:
dsDNA target = assay: In vitro DNA cleavage of TAGE agent RNPs with re-folded or unfolded sgRNA; assay type: biochemical; conditions: PBS, relative to Cas9(C80A)-2×NLS
Description: To assess DNA cleavage, 100 nM of each Cas9 RNP was incubated for 30 minutes at 37° C. with 100 nM of a dsDNA target. DNA cleavage was normalized to DNA cleavage achieved through incubation in buffer alone (i.e., untreated RNP). 1 μl of 20 mg/ml proteinase K was added to the reaction and incubated for 15 minutes at 50° C. The quenching reaction was held at 4° C. prior to separation on a Fragment Analyzer capillary electrophoresis (CE) instrument. 2 μl of the reaction was diluted with 22 μl of TE buffer and analyzed by capillary electrophoresis, per the manufacturer's recommendations. Cleavage reactions were run in triplicate, and background was subtracted from the band intensities. Percent cleavage was quantified with the following equation: % cleavage=(total mass cleaved product)/(total mass of substrate). The results are expressed as % cleavage relative to untreated RNP.
Next, the impact of re-folded gRNA on the in vitro DNA cleavage activity of TAGE agent RNPs was assessed.

primary human T cells [1] = assay: Ex vivo editing by co-incubation in buffers with additives, loss of surface CD47 by flow cytometry; assay type: cell-based; conditions: for genome editing (percentage of edited T cells): 1 hour, increasing NaCl (185-400 mM) and/or glycerol (1-15% w/v); for combined effect of glycerol and sodium chloride on genome editing: e.g. 300 mM NaCl with 12.5% glycerol; for TAGE editing efficacy: additive in combination with NaCl
Description: In this example, the impact of glycerol and salt on ex vivo editing by TAGE agents was assessed. Ribonucleoproteins were prepared from TAGE agents including 4×NLS-Cas9-2×NLS. A guide RNA targeting CD47 was associated with the respective TAGE agents to form ribonucleoproteins. […] The cells were washed after one hour to remove the additives and RNPs. The percentage of T cells that were edited under each condition was measured using a phenotypic readout detecting the loss of surface CD47 by flow cytometry. Additionally, the levels of live cells per mL 24 hours after co-incubation in the indicated buffer was assessed for each buffer condition.
In this example, the impact of salt and various polyols (e.g., sugar alcohols) or sugar on ex vivo editing by TAGE agents was assessed. Ribonucleoproteins were prepared from TAGE agents including 4×NLS-Cas9-2×NLS. A guide RNA targeting CD47 was associated with the respective TAGE agents to form ribonucleoproteins. […] Buffers having different salt concentrations (185 mM NaCl or 300 mM NaCl) and sugar alcohol or sugar concentrations ([…], 0.8 M, 1.2 M, 1.6 M, 2.0 M, or 2.4 M) were assessed. The cells were washed after one hour to remove additives and RNPs. The percentage of cells that were edited under each condition was measured using a phenotypic readout detecting the loss of surface CD47 by flow cytometry. Additionally, the levels of live cells per mL 24 hours after co-incubation in the indicated buffer was assessed for each buffer condition.
In this example, the impact of a cationic polymer (e.g., protamine) with or without glycerol on ex vivo editing by RNP TAGE agents was assessed. Ribonucleoproteins were prepared from TAGE agents including 4×NLS-Cas9-2×NLS or AsCas12a. A guide RNA targeting CD47 was associated with the respective TAGE agents to form ribonucleoproteins. […] The cells were washed after one hour to remove additives and RNPs. The percentage of T cells that were edited under each condition was measured using a phenotypic readout detecting the loss of surface CD47 by flow cytometry. Additionally, the levels of light scattering at 340 nm was assessed to detect aggregate formation. […]

primary human T cells [2] = assay: Editing by TAGE after pre-incubation of cells with inhibitors, loss of surface CD47 by flow cytometry; assay type: cell-based; conditions: 30 min pre-incubation; for editing of primary T cells by an antibody TAGE: Dynasore 80 μM; for editing of primary T cells by TAGE: DMA, EIPA 100 μM, Cyto D 20 μM, Lat A 10 μM, 3 μM TAGE26, 0.35 μM AB27-TAGE26 or AB2-TAGE26
Description: Antibodies were conjugated to Cas9 using the SpyTag2/SpyCatcher system and a guide RNA targeting CD47 was associated with the respective TAGE agents to form RNPs. Primary human T cells were pre-incubated with the indicated drug for 30 minutes. Then, RNPs were added to the cells at the indicated concentration and co-incubated for an additional hour. The cells were washed after one hour to remove inhibitors and RNPs. The percentage of cells that were edited under each condition was measured using a phenotypic readout detecting the loss of surface CD47 by flow cytometry.
Each data point represents a biological replicate. For each group, the horizontal line represents the mean and the error bars represent the standard deviation of the mean. With respect to the descriptions in FIG. 18, NT guide is a TAGE with non-targeting guide RNA; MeOH is methanol (a control for DMA and EIPA; used at 0.5% v/v; DMSO is dimethyl sulfoxide, a control for Cyto D and Lat A (used at 1% v/v); DMA is 5-(N,N-dimethyl)-amiloride, an inhibitor of NHE1 (used at 100 μM); EIPA is 5-(N-ethyl-N-isopropyl)-amiloride, an inhibitor of NHE1, (used at 100 μM); Cyto D is cytochalasin D, an inhibitor of F-actin polymerization (used at 20 μM); and Lat A is latrunculin A, an inhibitor of F-actin polymerization (used at 10 μM).
Antibodies were conjugated to Cas9 using the SpyTag/SpyCatcher system and a guide RNA targeting CD47 was associated with the respective TAGE agents to form an RNP. Primary human T cells were pre-incubated with the indicated drug (nystatin or Dynasore) for 30 minutes. Then, RNPs were added to cells at the indicated concentration and co-incubated for an additional hour. The cells were washed after one hour to remove inhibitors and RNPs. The percentage of cells that were edited under each condition was measured using a phenotypic readout detecting the loss of surface CD47 by flow cytometry. Each data point represents a biological replicate. For each group, the horizontal line represents the mean and the error bars represent the standard deviation of the mean. NT guide stood for TAGE with non-targeting guide RNA. DMSO is dimethylsulfoxide, a control for nystatin and Dynasore, which was used at 2% v/v. Dynasore is an inhibitor of dynamin, which was used at 80 μM. Nystatin was used at 108 μM.

[3] = Light scattering at 340 nm to detect aggregate formation with protamine; assay type: physicochemical; conditions: protamine in buffer
Description: In this example, the impact of a cationic polymer (e.g., protamine) with or without glycerol on ex vivo editing by RNP TAGE agents was assessed. Ribonucleoproteins were prepared from TAGE agents including 4×NLS-Cas9-2×NLS or AsCas12a. A guide RNA targeting CD47 was associated with the respective TAGE agents to form ribonucleoproteins. […] The cells were washed after one hour to remove additives and RNPs. The percentage of T cells that were edited under each condition was measured using a phenotypic readout detecting the loss of surface CD47 by flow cytometry. Additionally, the levels of light scattering at 340 nm was assessed to detect aggregate formation.

T cells = assay: Ex vivo editing with chloroquine, loss of surface CD47 by flow cytometry; assay type: cell-based, human; conditions: chloroquine 10, 30 or 100 μM for 24 hours after 1 hour RNP co-incubation with PBMCs, vs 0 μM
Description: FIG. 9 graphically depicts the results of an ex vivo editing assay in which TAGE agents including Cas9-2×NLS:sgBFP, 4×NLS-Cas9-2×NLS, Cas9-2×NLS-SpyCatcher-4×NLS, or IL-2[-SpyTag]:Cas9-2×NLS-SpyCatcher-4×NLS were co-incubated with primary human T cells and assessed for editing in buffers including different levels of chloroquine (0 μM, 10 μM, 30 μM, or 100 μM). A guide RNA targeting CD47 was associated with the respective TAGE agents to form ribonucleoproteins, and the ribonucleoproteins were co-incubated with T cells to test for editing. Editing was measured using a phenotypic readout measuring the loss of surface CD47 using flow cytometry.
In this example, the impact of chloroquine on ex vivo editing by TAGE agents was assessed. RNP TAGE agents including Cas9-2×NLS:sgBFP, 4×NLS-Cas9-2×NLS, Cas9-2×NLS-SpyCatcher-4×NLS, or IL-2-SpyTag:Cas9-2×NLS-SpyCatcher-4×NLS. A guide RNA targeting CD47 (or a non-targeting control, sgBFP) was associated with the respective TAGE agents to form the ribonucleoproteins. The RNPs were co-incubated with PBMCs for 1 hour followed by incubation with 0 μM chloroquine, 10 μM chloroquine, 30 μM chloroquine, or 100 μM chloroquine for 24 hours. The percentage of T cells that were edited by each TAGE was measured using a phenotypic readout detecting the loss of surface CD47 by flow cytometry.

primary human T cells [4] = assay: Editing by antibody TAGE or CPP-TAGE in T cell media with sugar, sugar alcohol or salt additive, loss of surface CD47 by flow cytometry; assay type: cell-based
Description: RNPs at the indicated concentration were co-incubated with primary human T cells for 1 hour in buffer including 0.5 M sucrose. The cells were washed after one hour to remove additives and RNPs. The editing percentage under each condition was measured using a phenotypic readout detecting the loss of surface CD47 by flow cytometry.
Five different TAGE agent were tested. […] The cells were washed after one hour to remove additives and RNPs. The percentage of cells that were edited under each condition was measured using a phenotypic readout detecting the loss of surface CD47 by flow cytometry. Each data point represents the mean of biological triplicates, and the error bars represent the standard deviation of the mean.
The cells were washed after one hour to remove additives and RNPs. The percentage of cells that were edited under each condition was measured using a phenotypic readout detecting the loss of surface CD47 by flow cytometry. Each data point represents a biological replicate. […]
RNP at the indicated concentration was co-incubated with primary human T cells for 1 hour in T cell media with no additive (Baseline) or in T cell media with 0.5 M sucrose. […] The percentage of cells that were edited under each condition was measured using a phenotypic readout detecting the loss of surface CD47 by flow cytometry. […]

4×NLS-Cas9(C80A)-2×NLS: TAGE agent: Cas9(C80A) with four N-terminal and two C-terminal NLS
DNA cleavage activity (dsDNA target): reduced activity in PBS

poly-glutamic acid [PGA]
editing by co-incubation (primary human T cells [1]; 3.75 μM Cas9 or AsCas12a RNP, PGA 1500-5500 Da or 15,000 Da, also at lower concentrations): inhibited editing by co-incubation

O=C(N/N=C/c1ccc(O)c(O)c1)c1cc2ccccc2cc1O [dynasore, Dynasore]
editing of primary T cells by an antibody TAGE (primary human T cells [2]; nystatin 108 μM): not increased

protamine
editing by Cas12a (primary human T cells [1]; protamine in buffer): limited benefits for Cas12a editing | editing by 4×NLS-Cas9-2×NLS (primary human T cells [1]; protamine in buffer, low glycerol concentrations): increased editing | aggregation of Cas12a (340 nm light scattering) [3]: did not cause appreciable Cas12a aggregation | aggregation of 4×NLS-Cas9-2×NLS (340 nm light scattering) ([3]; low glycerol concentrations): caused aggregation

CN(C)c1nc(N)c(C(=O)NC(=N)N)nc1Cl [DMA, 5-(N,N-dimethyl)-amiloride]
editing of primary T cells by TAGE (primary human T cells [2]): increased

CCN(c1nc(N)c(C(=O)N=C(N)N)nc1Cl)C(C)C [EIPA, 5-(N-ethyl-N-isopropyl)-amiloride]
editing of primary T cells by TAGE (primary human T cells [2]): increased

C[C@@H]1[C@H](O)[C@@H](C)/C=C/C=C/CC/C=C/C=C/C=C/C=C/C(O[C@H]2O[C@H](C)[C@@H](O)[C@H](N)[C@@H]2O)CC2O[C@](O)(CC(O)C(O)CCC(O)CC(O)CC(O)CC(=O)O[C@H]1C)CC(O)C2C(=O)O (stereo partly shown) [nystatin]
editing by TAGE containing a non-targeting antibody (AB27-TAGE26) (primary human T cells [2]; nystatin 108 μM): did not increase editing | editing of primary T cells by an antibody TAGE (primary human T cells [2]; nystatin 108 μM): increased

OCC(O)CO [glycerol]
genome editing (percentage of edited T cells) (primary human T cells [1]; 3.75 μM 4×NLS-Cas9-2×NLS RNP): increased genome editing in cells | combined effect of glycerol and sodium chloride on genome editing (primary human T cells [1]; 3.75 μM 4×NLS-Cas9-2×NLS RNP): synergistic effect on genome editing | TAGE editing efficacy (primary human T cells [1]; 3.75 μM 4×NLS-Cas9-2×NLS RNP): can increase TAGE editing efficacy | glycerol concentration at peak editing ex vivo (primary human T cells [1]; human T cells, depending on the TAGE and the salt concentration): 7-10% and 15-16%

OC[C@@H](O)[C@H](O)[C@@H](O)CO [xylitol]
percentage of edited cells (primary human T cells [1]; 3.75 μM 4×NLS-Cas9-2×NLS RNP, 300 mM NaCl and ≥1 M xylitol): over 50% | TAGE editing efficacy (primary human T cells [1]; 3.75 μM 4×NLS-Cas9-2×NLS RNP): can increase TAGE editing efficacy

CCN(CC)CCCC(C)Nc1ccnc2cc(Cl)ccc12 (stereo not shown) [chloroquine]
editing of T cells by TAGE RNPs (T cells): increased editing of T cells

C/C1=C/C(=O)O[C@@H]2C[C@@H](CC[C@H](C)/C=C\C=C\CC1)O[C@@](O)([C@@H]1CSC(=O)N1)C2 [Lat A, latrunculin A]
editing of primary T cells by TAGE (primary human T cells [2]): decreased

OC[C@H]1O[C@@](CO)(O[C@H]2O[C@H](CO)[C@@H](O)[C@H](O)[C@H]2O)[C@@H](O)[C@@H]1O [sucrose]
TAGE editing efficacy (primary human T cells [1]; 3.75 μM 4×NLS-Cas9-2×NLS RNP): can increase TAGE editing efficacy | lowest TAGE concentration at which editing is enabled (primary human T cells [4]; 0.5 M sucrose): 0.7 nM | effect of additive on editing (primary human T cells [4]; 0.5 M sucrose as formulation additive): improves editing

C=C1[C@@H](C)[C@H]2[C@H](Cc3ccccc3)NC(=O)[C@]23[C@H](OC(C)=O)/C=C/[C@@](C)(O)C(=O)[C@@H](C)C/C=C/[C@H]3[C@@H]1O [Cyto D, cytochalasin D]
editing of primary T cells by TAGE (primary human T cells [2]): decreased

[Cl-].[Na+] [sodium chloride]
genome editing (percentage of edited T cells) (primary human T cells [1]; 3.75 μM 4×NLS-Cas9-2×NLS RNP): increased genome editing in cells | combined effect of glycerol and sodium chloride on genome editing (primary human T cells [1]; 3.75 μM 4×NLS-Cas9-2×NLS RNP): synergistic effect on genome editing
